Molecular target: T1, Interleukin-1 receptor-associated kinase 4 (Homo sapiens, UniProt Q9NWZ3)
T1 sequence (Q9NWZ3 whole entry): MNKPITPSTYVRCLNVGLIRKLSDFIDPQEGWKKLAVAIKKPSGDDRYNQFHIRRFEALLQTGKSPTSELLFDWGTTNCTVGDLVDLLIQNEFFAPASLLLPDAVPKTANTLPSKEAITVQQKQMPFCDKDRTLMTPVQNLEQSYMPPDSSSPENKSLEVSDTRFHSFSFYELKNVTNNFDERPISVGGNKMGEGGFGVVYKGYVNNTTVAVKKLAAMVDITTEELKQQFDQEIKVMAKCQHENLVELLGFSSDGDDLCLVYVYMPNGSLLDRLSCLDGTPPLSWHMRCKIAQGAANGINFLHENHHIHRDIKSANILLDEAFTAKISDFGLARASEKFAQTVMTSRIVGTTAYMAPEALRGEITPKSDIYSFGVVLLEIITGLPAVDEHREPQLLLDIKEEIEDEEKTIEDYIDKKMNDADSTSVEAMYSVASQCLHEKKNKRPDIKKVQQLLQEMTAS
Assay: Inhibition of recombinant human full length his-tagged IRAK4 expressed in insect cells using KKARFSRFAGSSPSQSSMVAR as peptide substrate preincubated for 15 mins followed by substrate addition and measured after 2 hrs in presence of ATP by LC-MS/MS analysis

IC50: 0.5 nM
Structure (SMILES): COc1cc2nn([C@H]3CC[C@H](n4ccnc4C(C)O)CC3)cc2cc1C(=O)Nc1cccn(C)c1=O (stereo partly specified)
